Test in all cases: growth of human tumour cells (NCI), 48 h
For test [1], the system named is SN12C renal.
Test [2] deals with KM12 colon.
Test [3] deals with A498 renal.
In test [4] the test system is RXF 393 renal.
Test [5] relates to MALME-3M melanoma.
Test [6] deals with UACC-257 melanoma.
In test [7] the test system is UACC-62 melanoma.
Test [8] concerns NCI-H226 lung.
For test [9], the system named is SF-539 CNS.
The test system of test [10] is HL-60(TB) leukemia.

SMILES strings stand for the structures.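 Where inhibition never reached the appropriate level, the endpoint shown equals the highest concentration tested. Otherwise, values were interpolated linearly from a five-concentration, 48-hour dose response in 96-well plates. At the GI50, growth is halved. The concentration for full growth arrest is given as TGI.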 Bounds are passed on as bounds.

For the molecule `COc1cc2c(c3oc(-c4ccc(O)cc4)c(O)c(=O)c13)CCC(C)(C)O2`, the GI50 in test [1] was 0.271 µM; in [2], 0.384 µM; in test [3], 0.148 µM; in test [4], 0.0379 µM; in [5], 1.42 µM; in [6] it was 0.291 µM. The GI50 in test [7] was 0.199 µM; in test [8], 0.536 µM; in test [9], 0.0241 µM. Further, the TGI in [1] is 0.884 µM; in [2], 23.4 µM; in test [3] it was 0.538 µM; in [4], 0.176 µM; in test [5], above 100 µM; in test [6], 0.778 µM. The TGI was 0.616 µM in test [7], 2.55 µM in test [8] and 0.0586 µM in test [9].
As for `O=C(CCc1n[nH]c(=S)o1)Nc1cc(Cl)ccc1Cl`, the TGI in test [1], in test [2], in test [3], in test [5], in test [6] and in test [7] was above 100 µM each time. The figures for the TGI in test [8], in test [9] and in [10] were above 100 µM, above 100 µM and 78.9 µM, respectively.
For `CC(C)=CCC/C(C)=C/CC/C(C)=C/CSC[C@H](NC(=O)CCCCCN1CCN(C)CC1)C(=O)NC1CCCCCC1`, the GI50 is 2.05 µM in [1]; 1.97 µM in test [2]; 3.76 µM in [3]; 1.94 µM in [5]; 1.85 µM in test [6]; 1.78 µM in test [7]. The GI50 in test [8] was 11.6 µM; in test [9], 1.89 µM; in test [10], 1.98 µM. The TGI in [1] stood at 4.51 µM; in test [2], 3.86 µM; in [3], 16.7 µM; in [5], 3.56 µM; in test [6], 3.63 µM; in test [7] it was 3.44 µM. The TGI in test [8] was found to be 38.4 µM; in [9] it was 3.38 µM; in test [10], 4.14 µM.
Turning to `C=CCC1(O)c2ccccc2C(=O)c2c(OCC(=O)OCC)ccc(OCC(=O)OCC)c21` (stereo not drawn), the GI50 was 87.6 µM in test [1]; above 100 µM in [2]; above 100 µM in test [3]; above 100 µM in [6]; 64.7 µM in test [7]; above 100 µM in test [8]. Also, the GI50 in test [9] was above 100 µM; in test [10] it was 75.9 µM. Further, the TGI in test [1], in [2], in test [3], in test [6], in test [7] and in test [8] was above 100 µM throughout. Moreover, the TGI in [9] and in test [10] was above 100 µM throughout.
Consider `Cc1c(Cl)cccc1C(=O)Nc1nc2c(s1)CN(C(=O)Nc1cccc(C(F)(F)F)c1)CC2`, for which the GI50 in [1] was 0.334 µM; in test [2], 0.174 µM; in [4], 0.106 µM; in test [5], 0.356 µM; in test [6], 2.21 µM; in test [7], 0.366 µM. For the same molecule, the results for the GI50 in [8], in [9] and in test [10] were 0.213 µM, 0.155 µM and 0.149 µM, respectively. The TGI in [1] was above 50 µM; in test [2], above 21.7 µM; in test [4], 0.349 µM; in test [5], above 50 µM; in test [6], above 50 µM; in [7], above 50 µM. Also, the TGI worked out at 7.65 µM in test [8] and 0.885 µM in [9].
On to `C=CCc1cccc(C=O)c1O`, for which the GI50 in test [1] is 20.8 µM; in [4], 94 µM; in [5], above 100 µM; in test [6] it was above 100 µM; in [7] it was 35.9 µM; in test [8], above 100 µM. Besides, the results for the GI50 in test [9] and in test [10] were 30.1 µM and 10.6 µM, respectively. The TGI in [1], in test [4], in test [5], in [6], in [7] and in test [8] was above 100 µM throughout. Also, the results for the TGI in test [9] and in test [10] were above 100 µM and 41 µM, respectively.
`C/C(CN1C(=O)c2ccccc2C1=O)=N\NS(=O)(=O)c1ccc2ccccc2c1`: the TGI in test [1], in test [2], in test [3], in test [5], in [6] and in test [7] was above 100 µM throughout. Also, the TGI in test [8], in [9] and in [10] was above 100 µM in each case.
Regarding `COc1cc(/C=C2\CC3C4CC=C5CC(OC(C)=O)CC[C@]5(C)C4CC[C@]3(C)C2=O)ccc1OCCN1CCCC1` (stereo partly drawn), the GI50 in test [1] was 13.7 µM; in test [2], 3.89 µM; in test [3], 23.7 µM; in [4] it was 3.01 µM; in test [6] it was 2.09 µM; in test [7] it was 1.93 µM. Further, the GI50 in [8] was 14.1 µM; in [9] it was 3.63 µM; in test [10], 2.78 µM. Further, the TGI in test [1] came out at 26.6 µM; in [2] it was 15 µM; in [3] it was 43.5 µM; in test [4], 11.6 µM; in test [6], 4.2 µM; in test [7] it was 3.85 µM. The TGI came to 30.9 µM in test [8], 9.82 µM in test [9] and 6.89 µM in test [10].
`CC(C)(C)CC(C)(C)c1ccc(OCCO)cc1`: the GI50 in [1] was 6.38 µg/mL; in test [2], 7.81 µg/mL; in test [3] it was 0.0423 µg/mL; in test [4], 8.58 µg/mL; in test [6], 2.39 µg/mL; in test [7] it was 3.51 µg/mL. Moreover, the GI50 was 2.44 µg/mL in [8], 8.77 µg/mL in [9] and 1.81 µg/mL in [10]. For the same molecule, the TGI is 16.7 µg/mL in test [1]; 18.6 µg/mL in test [2]; 14.2 µg/mL in [3]; 18.1 µg/mL in test [4]; 16.9 µg/mL in [6]; 15.9 µg/mL in test [7]. Also, the TGI was 15.8 µg/mL in test [8], 19.5 µg/mL in test [9] and 31.6 µg/mL in test [10].
As to `COc1nc(NC2OC(COC(C)=O)C(OC(C)=O)C(OC(C)=O)C2OC(C)=O)c(N=CC=Nc2c(NC3OC(COC(C)=O)C(OC(C)=O)C(OC(C)=O)C3OC(C)=O)nc(OC)[nH]c2=O)c(=O)[nH]1` (stereo not drawn), the TGI in test [1], in test [2], in test [3], in test [5], in test [6] and in test [7] was above 100 µM throughout. For the same molecule, the TGI in test [8], in [9] and in test [10] was above 100 µM in each case.

The record behind these values is PubChem BioAssay (NCI).
